From US20100004194A1, “USE OF ISOMALTULOSE IN FOOD PRODUCTS HAVING A REGENERATIVE EFFECT” (priority 2006, published 2010)
“Also recorded” adds a separate entry of the source.

Key:
[1] = 3-armed crossover study: respiratory quotient before, during and after physical exertion (bicycle ergometer, Wingate test) with test drinks; assay type: in vivo, human; conditions: 21 male endurance athletes
Experimental: The effect of isomaltulose (Palatinose™) on the regulation of the metabolism before, during and after physical exertion was examined and compared with the consumption of maltodextrin or a placebo which has a non-glycaemic effect and is of equivalent sweetness.
The test was carried out as a 3-armed crossover study on 21 subjects. In each subject, the effect of a non-glycaemic drink (placebo=sweetened mineral water) was tested versus a drink containing maltodextrin versus isomaltulose.
The subjects were male endurance athletes with several years' training experience (VO2max>55 ml/kg KG) aged between 23 and 50.
In step ergometry on a bicycle (100 watts at the start; increased by 50 watts/3 min), performance was first determined in the range of from 70-75% of the maximum oxygen uptake. After a sufficient regeneration phase of at least 5 days, the first testing was carried out in randomised order. The testing was carried out in the morning, at the same time in each case, 3-4 hours after a standardised breakfast.
Standardised endurance exertion was first carried out on a bicycle ergometer at 70-75% of the VO2max over 90 min. […] The respiratory quotient (RQ) was determined at the moments −30, −15, 0, 15, 30, 45, 60, 75, 90 min before or during the exertion, immediately after completion of the Wingate test and also 3, 15, 30, 60 and 120 min after end of exertion. […]

[2] = Second meal effect crossover study: respiratory quotient over a test period including two meals and 30-min treadmill exertion; assay type: in vivo, human; conditions: 20 subjects
Experimental: The test was a crossover study with 20 subjects. In each subject, the effect of isomaltulose vs. sucrose/glucose syrup was tested.
The test period comprised two meals into which the test substances were integrated: on the one hand a breakfast, which consisted of a drink (250 ml, 10% carbohydrates=25 g of test substance) and biscuits (approx. 140 g, also with 25 g of test substance), and on the other hand a lunch consisting of mini pizzas, an apple and a refreshment drink. The carbohydrate quantity, consumed per portion of shortpastry, of wheat starch of the flour was, at about 50-60 g carbohydrates, at the same level in all biscuit variants. Each test period comprised two postprandial phases.
The respiratory quotient was determined first at rest, then during the subsequent 30-min exertion at moderate intensity (treadmill uphill protocol 4 km/h 5% gradient), at the end of the 30-minute post-exertion phase and up to 4 hours after consumption of the second meal (the lunch).

SMILES: OC[C@H]1O[C@H](OC[C@H]2OC(O)(CO)[C@@H](O)[C@@H]2O)[C@H](O)[C@@H](O)[C@@H]1O (stereo partly shown) [isomaltulose]
- respiratory quotient (RQ) after the physical exertion versus immediately prior to the exertion (percentage change) ([1]; 250 ml drinks with 25 g carbohydrate 30 min prior, at start, after 45 min and after Wingate test (2x250 ml), 90 min at 70-75% VO2max): substantially equal to or even lower; also recorded: substantially equal
- RQ throughout the test phase ([1]; isomaltulose drink compared with maltodextrin drink or placebo): lower RQ
- RQ after consumption of the breakfast ([2]; breakfast drink with 25 g plus biscuits with 25 g test substance, versus sucrose/glucose syrup breakfast): lower than after the sucrose/glucose syrup breakfast
- degree by which the RQ was lower after consumption of a second meal (lunch) ([2]; up to 4 hours after the lunch, versus sucrose/glucose syrup): maintained
